Here are results for 9 molecules from ChEMBL document CHEMBL2074008, “Structural determinants of P-glycoprotein-mediated transport of glucocorticoids” (Pharm Res, 2003).

The target in the data set is ATP-dependent translocase ABCB1 (Homo sapiens, UniProt P08183). The data set can be described thus: TP_TRANSPORTER: transepithelial transport in MDR1-expressing LLC-PK1 cells. It is filed as functional, cell-based. The note with it: pig.

SMILES strings stand for the structures.

ATP-dependent translocase ABCB1, sequence (P08183 whole entry): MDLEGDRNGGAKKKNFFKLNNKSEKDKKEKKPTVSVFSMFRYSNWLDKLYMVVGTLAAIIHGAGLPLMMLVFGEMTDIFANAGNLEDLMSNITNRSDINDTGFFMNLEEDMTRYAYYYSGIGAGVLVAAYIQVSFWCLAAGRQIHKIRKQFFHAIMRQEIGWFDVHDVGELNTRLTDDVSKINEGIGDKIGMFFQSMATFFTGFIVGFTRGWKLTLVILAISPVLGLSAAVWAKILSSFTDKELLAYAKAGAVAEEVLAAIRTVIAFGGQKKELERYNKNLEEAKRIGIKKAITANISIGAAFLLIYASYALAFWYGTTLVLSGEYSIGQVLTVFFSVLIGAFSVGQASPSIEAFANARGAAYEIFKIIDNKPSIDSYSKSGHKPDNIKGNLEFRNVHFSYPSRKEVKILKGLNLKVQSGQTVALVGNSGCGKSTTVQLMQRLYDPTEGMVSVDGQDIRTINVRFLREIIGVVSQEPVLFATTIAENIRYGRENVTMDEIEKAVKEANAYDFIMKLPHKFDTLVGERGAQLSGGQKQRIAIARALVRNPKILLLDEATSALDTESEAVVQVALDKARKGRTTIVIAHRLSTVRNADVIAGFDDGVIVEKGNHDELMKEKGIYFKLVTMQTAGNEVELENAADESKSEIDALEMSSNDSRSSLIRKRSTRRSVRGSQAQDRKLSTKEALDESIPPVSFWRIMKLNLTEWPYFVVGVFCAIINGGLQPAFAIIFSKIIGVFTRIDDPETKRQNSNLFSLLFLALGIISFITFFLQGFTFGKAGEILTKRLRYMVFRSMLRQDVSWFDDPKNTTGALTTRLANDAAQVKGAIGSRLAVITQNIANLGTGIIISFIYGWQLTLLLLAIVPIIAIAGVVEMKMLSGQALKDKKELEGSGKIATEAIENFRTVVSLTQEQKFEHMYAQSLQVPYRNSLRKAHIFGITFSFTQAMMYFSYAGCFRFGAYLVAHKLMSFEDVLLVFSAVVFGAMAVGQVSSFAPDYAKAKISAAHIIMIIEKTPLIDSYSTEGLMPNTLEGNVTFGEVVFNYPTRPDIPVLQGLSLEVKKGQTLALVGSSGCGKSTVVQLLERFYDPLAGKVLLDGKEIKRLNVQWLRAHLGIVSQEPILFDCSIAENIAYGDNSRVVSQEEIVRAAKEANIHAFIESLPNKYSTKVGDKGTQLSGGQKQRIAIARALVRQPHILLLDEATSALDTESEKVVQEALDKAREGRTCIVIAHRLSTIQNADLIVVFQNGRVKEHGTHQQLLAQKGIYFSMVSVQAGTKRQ

As to `C[C@]12CCC(=O)C=C1[C@H](O)C[C@@H]1[C@@H]2[C@@H](O)C[C@@]2(C)[C@H]1CC[C@]2(O)C(=O)CO`, the Activity entry is “substrate [+]”.
Turning to `C[C@]12CCC(=O)C=C1[C@@H](O)C[C@@H]1[C@@H]2[C@@H](O)C[C@@]2(C)[C@H]1CC[C@]2(O)C(=O)CO`, the Activity entry is “substrate [+]”.
On to `C[C@H]1C[C@H]2[C@@H]3CCC4=CC(=O)C=C[C@]4(C)[C@@]3(F)[C@@H](O)C[C@]2(C)[C@@]1(O)C(=O)CO` [BETAMETHASONE], for which the Activity result was “substrate [+]”.
Under `C[C@]12CCC(=O)C=C1CC[C@@H]1[C@@H]2C(=O)C[C@@]2(C)[C@H]1CC[C@]2(O)C(=O)CO` [CORTISONE] stands “substrate [+]”; under `C[C@@H]1C[C@H]2[C@@H]3CCC4=CC(=O)C=C[C@]4(C)[C@@]3(F)[C@@H](O)C[C@]2(C)[C@@]1(O)C(=O)CO` [DEXAMETHASONE], “substrate [+]”.
Take `C[C@]12CCC(=O)C=C1CC[C@@H]1[C@@H]2[C@@H](O)C[C@@]2(C)[C@H]1CC[C@]2(O)C(=O)CO` [HYDROCORTISONE]: the Activity result is “substrate [+]”.
For `C[C@H]1C[C@@H]2[C@H]([C@@H](O)C[C@@]3(C)[C@H]2CC[C@]3(O)C(=O)CO)[C@@]2(C)C=CC(=O)C=C12` [METHYLPREDNISOLONE], the Activity result was “substrate [+]”.
As to `C[C@]12C=CC(=O)C=C1CC[C@@H]1[C@@H]2[C@@H](O)C[C@@]2(C)[C@H]1CC[C@]2(O)C(=O)CO` [PREDNISOLONE], the Activity result was “substrate [+]”.
Under `C[C@]12C=CC(=O)C=C1CC[C@@H]1[C@@H]2C(=O)C[C@@]2(C)[C@H]1CC[C@]2(O)C(=O)CO` [PREDNISONE] stands “substrate [+]”.
